How the values were obtained:
Type in all cases: in vivo
rice (Oryza saliva) [1] = assay: Test C flooded paddy test; conditions: for Rice plant response rating: scale 0 to 100, 0 no effect, 100 complete control
Procedure, shortened: (§1)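 Rice and three paddy weeds were grown to the 2-leaf stage under flooded conditions, then treated and kept in a greenhouse for 12–14 days. Response was rated visually against untreated controls on a 0–100 scale, where 100 is complete control.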

[2] = system: barnyardgrass (Echinochloa crus-galli); assay: Test C flooded paddy test; conditions: for Barnyardgrass plant response rating: scale 0 to 100, 0 no effect, 100 complete control
Procedure, shortened: as §1

[3] = system: duck salad (Heteranthera limosa); assay: Test C flooded paddy test; conditions: for Ducksalad plant response rating: scale 0 to 100, 0 no effect, 100 complete control
Procedure, shortened: as §1

[4] = system: smallflower flatsedge (Cyperus difformis); assay: Test C flooded paddy test; conditions: for Flatsedge plant response rating: Flooded Paddy, scale 0 to 100, 0 no effect, 100 complete control; for Plant response rating, Flatsedge: flooded paddy test, scale 0 to 100 (0 no effect, 100 complete control)
Procedure, shortened: as §1

[5] = system: velvetleaf (Abutilon theophrasti); assay: Test B preemergence
Procedure, shortened: (§2)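 Greenhouse test: chemicals are formulated in a surfactant-containing non-phytotoxic solvent and applied either preemergence to planted seeds or postemergence to plants 2 to 18 cm tall. Response is rated visually versus controls after 13 to 15 days, 0 meaning no effect and 100 complete control.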

[6] = system: pigweed (Amaranthus retroflexus); assay: Test B preemergence; conditions: scale 0 to 100, 0 no effect, 100 complete control
Procedure, shortened: as §2

rice (Oryza saliva) [7] = assay: Test B preemergence
Procedure, shortened: as §2

[8] = system: barnyardgrass (Echinochloa crus-galli); assay: Test B preemergence
Procedure, shortened: as §2

[9] = system: lambsquarters (Chenopodium album); assay: Test B preemergence
Procedure, shortened: as §2

[10] = system: crabgrass (Digitaria sanguinalis); assay: Test B preemergence
Procedure, shortened: as §2

[11] = system: cocklebur (Xanthium strumarium); assay: Test B preemergence
Procedure, shortened: as §2

[12] = system: Surinam grass (Brachiaria decumbens); assay: Test B preemergence
Procedure, shortened: as §2

[13] = system: giant foxtail (Setaria faberii); assay: Test B preemergence
Procedure, shortened: as §2

corn (Zea mays) [14] = assay: Test B preemergence
Procedure, shortened: as §2

[15] = system: morning glory (Ipomoea hederacea); assay: Test B preemergence
Procedure, shortened: as §2

rice (Oryza saliva) [16] = assay: Test B flooded paddy test; conditions: Rate 1000 g/ha, scale of 0 to 100 where 0 is no effect and 100 is complete control, visually evaluated after 13 to 15 days
Procedure, shortened: (§3)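 Visual injury score on a 0–100 scale, where 100 means complete control, assigned against untreated controls 13 to 15 days after plants at the 2-leaf stage were treated under flooded paddy conditions.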

[17] = system: barnyardgrass (Echinochloa crus-galli); assay: Test B flooded paddy test; conditions: Rate 1000 g/ha, scale of 0 to 100 where 0 is no effect and 100 is complete control, visually evaluated after 13 to 15 days
Procedure, shortened: as §3

[18] = system: duck salad (Heteranthera limosa); assay: Test B flooded paddy test; conditions: Rate 1000 g/ha, scale of 0 to 100 where 0 is no effect and 100 is complete control, visually evaluated after 13 to 15 days
Procedure, shortened: as §3

[19] = system: smallflower flatsedge (Cyperus difformis); assay: Test B flooded paddy test; conditions: Rate 1000 g/ha, scale of 0 to 100 where 0 is no effect and 100 is complete control, visually evaluated after 13 to 15 days
Procedure, shortened: as §3

[20] = system: velvetleaf (Abutilon theophrasti); assay: Test B postemergence; conditions: 13 to 15 days
Procedure, shortened: as §2

[21] = system: pigweed (Amaranthus retroflexus); assay: Test B postemergence; conditions: 13 to 15 days
Procedure, shortened: as §2

wild oat (Avena fatua) = assay: Test B postemergence; conditions: 13 to 15 days
Procedure, shortened: as §2

[22] = system: barnyardgrass (Echinochloa crus-galli); assay: Test B postemergence; conditions: 13 to 15 days
Procedure, shortened: as §2

[23] = system: lambsquarters (Chenopodium album); assay: Test B postemergence; conditions: 13 to 15 days
Procedure, shortened: as §2

[24] = system: wheat (Triticum aestivum); assay: Test B postemergence; conditions: 13 to 15 days
Procedure, shortened: as §2

[25] = system: crabgrass (Digitaria sanguinalis); assay: Test B postemergence; conditions: 13 to 15 days
Procedure, shortened: as §2

[26] = system: cocklebur (Xanthium strumarium); assay: Test B postemergence; conditions: 13 to 15 days
Procedure, shortened: as §2

[27] = system: Surinam grass (Brachiaria decumbens); assay: Test B postemergence; conditions: 13 to 15 days
Procedure, shortened: as §2

[28] = system: giant foxtail (Setaria faberii); assay: Test B postemergence; conditions: 13 to 15 days
Procedure, shortened: as §2

corn (Zea mays) [29] = assay: Test B postemergence; conditions: 13 to 15 days
Procedure, shortened: as §2

[30] = system: morning glory (Ipomoea hederacea); assay: Test B postemergence; conditions: 13 to 15 days
Procedure, shortened: as §2

[31] = system: blackgrass (Alopecurus myosuroides); assay: Test B postemergence; conditions: 13 to 15 days
Procedure, shortened: as §2

[32] = flooded paddy test, Rate 62 g/ha, scale 0 to 100 (0 no effect, 100 complete control)
[33] = flooded paddy test, Rate 125 g/ha, scale 0 to 100 (0 no effect, 100 complete control)
[34] = Preemergence, Rate 500 g/ha, scale 0 to 100, 0 no effect, 100 complete control
[35] = preemergence, Rate 125 g/ha, scale of 0 to 100 where 0 is no effect and 100 is complete control, 13 to 15 days
[36] = Rate 125 g/ha, scale 0 (no effect) to 100 (complete control)
[37] = Rate 500 g/ha, scale 0 to 100, 0 is no effect, 100 is complete control
[38] = Flooded Paddy, Rate 500 g/ha, scale 0 to 100
[39] = preemergence, Rate 125 g/ha, scale 0 to 100, 0 no effect, 100 complete control

CC(C)(C)c1ccn(C2CCN(c3cc(Cl)cc(Cl)c3)C2=O)n1 (stereo not shown) [Compound 55]
Rice plant response rating (rice (Oryza saliva) [1]; Flooded Paddy, Rate 250 g/ha): 0 | Rice plant response rating (rice (Oryza saliva) [1]; Flooded Paddy, Rate 500 g/ha): 0 | Plant response rating, Rice (rice (Oryza saliva) [1]; [32]): 0 | Plant response rating, Rice (rice (Oryza saliva) [1]; [33]): 0 | Barnyardgrass plant response rating ([2]; Flooded Paddy, Rate 250 g/ha): 100 | Barnyardgrass plant response rating ([2]; Flooded Paddy, Rate 500 g/ha): 100 | Plant response rating, Barnyardgrass [2, 32]: 0 | Plant response rating, Barnyardgrass [2, 33]: 50 | Ducksalad plant response rating ([3]; Flooded Paddy, Rate 250 g/ha): 50 | Ducksalad plant response rating ([3]; Flooded Paddy, Rate 500 g/ha): 50 | Plant response rating, Ducksalad [3, 32]: 0 | Plant response rating, Ducksalad [3, 33]: 40 | Flatsedge plant response rating ([4]; Rate 250 g/ha): 90 | Flatsedge plant response rating ([4]; Rate 500 g/ha): 100 | Plant response rating, Flatsedge ([4]; Rate 62 g/ha): 40 | Plant response rating, Flatsedge ([4]; Rate 125 g/ha): 90 | Plant response rating, Velvetleaf [5, 34]: 0 | Plant response rating, Velvetleaf [5, 35]: 0 | Plant response rating, Pigweed ([6]; Preemergence, Rate 500 g/ha): 0 | Plant response rating, Rice (rice (Oryza saliva) [7]; [34]): 0 | Plant response rating, Rice (rice (Oryza saliva) [7]; [35]): 0 | Plant response rating, Barnyardgrass [8, 34]: 0 | Plant response rating, Barnyardgrass [8, 35]: 0 | Plant response rating, Lambsquarters [9, 34]: 0 | Plant response rating, Lambsquarters [9, 35]: 0 | Plant response rating, Crabgrass [10, 34]: 0 | Plant response rating, Crabgrass [10, 35]: 0 | Plant response rating, Cocklebur [11, 35]: 0 | Plant response rating, Surinam grass [12, 34]: 0 | Plant response rating, Surinam grass [12, 35]: 0 | Plant response rating, Foxtail, Giant [13, 34]: 0 | Plant response rating, Foxtail, Giant [13, 35]: 0 | Plant response rating, Corn (corn (Zea mays) [14]; [34]): 0 | Plant response rating, Corn (corn (Zea mays) [14]; [35]): 0 | Plant response rating, Morningglory [15, 34]: 0 | Plant response rating, Morningglory [15, 35]: 0 | Plant response rating, Rice (rice (Oryza saliva) [16]): 0 | Plant response rating, Barnyardgrass [17]: 100 | Plant response rating, Ducksalad [18]: 80 | Plant response rating, Flatsedge [19]: 100 | Plant response rating, Velvetleaf [20, 36]: 0 | Plant response rating, Velvetleaf [20, 37]: 0 | Plant response rating, Pigweed [21, 36]: 0 | Plant response rating, Pigweed [21, 37]: 0 | Plant response rating, Wild Oat (wild oat (Avena fatua); [36]): 0 | Plant response rating, Wild Oat (wild oat (Avena fatua); [37]): 0 | Plant response rating, Barnyardgrass [22, 36]: 0 | Plant response rating, Barnyardgrass [22, 37]: 0 | Plant response rating, Lambsquarters [23, 36]: 0 | Plant response rating, Lambsquarters [23, 37]: 0 | Plant response rating, Wheat [24, 36]: 0 | Plant response rating, Wheat [24, 37]: 0 | Plant response rating, Crabgrass [25, 36]: 0 | Plant response rating, Crabgrass [25, 37]: 0 | Plant response rating, Cocklebur [26, 36]: 10 | Plant response rating, Cocklebur [26, 37]: 10 | Plant response rating, Surinam grass [27, 36]: 0 | Plant response rating, Surinam grass [27, 37]: 0 | Plant response rating, Foxtail, Giant [28, 36]: 0 | Plant response rating, Foxtail, Giant [28, 37]: 0 | Plant response rating, Corn (corn (Zea mays) [29]; [36]): 0 | Plant response rating, Corn (corn (Zea mays) [29]; [37]): 0 | Plant response rating, Morningglory [30, 36]: 0 | Plant response rating, Morningglory [30, 37]: 30 | Plant response rating, Blackgrass [31, 36]: 0 | Plant response rating, Blackgrass [31, 37]: 0

Cc1cn(C2CCN(c3cccc(C(F)(F)F)c3)C2=O)nc1C(C)C (stereo not shown) [Compound 17]
Plant response rating, Rice (rice (Oryza saliva) [1]; [38]): 0 | Rice plant response rating (rice (Oryza saliva) [1]; Flooded Paddy, Rate 250 g/ha): 0 | Plant response rating, Rice (rice (Oryza saliva) [1]; [32]): 0 | Plant response rating, Rice (rice (Oryza saliva) [1]; [33]): 0 | Plant response rating, Barnyardgrass [2, 38]: 70 | Barnyardgrass plant response rating ([2]; Flooded Paddy, Rate 250 g/ha): 0 | Plant response rating, Barnyardgrass [2, 32]: 0 | Plant response rating, Barnyardgrass [2, 33]: 0 | Plant response rating, Ducksalad [3, 38]: 80 | Ducksalad plant response rating ([3]; Flooded Paddy, Rate 250 g/ha): 80 | Plant response rating, Ducksalad [3, 32]: 30 | Plant response rating, Ducksalad [3, 33]: 70 | Flatsedge plant response rating ([4]; Rate 250 g/ha): 80 | Flatsedge plant response rating ([4]; Rate 500 g/ha): 80 | Plant response rating, Flatsedge ([4]; Rate 62 g/ha): 20 | Plant response rating, Flatsedge ([4]; Rate 125 g/ha): 70 | Plant response rating, Velvetleaf [5, 34]: 0 | Plant response rating, Pigweed ([6]; Preemergence, Rate 500 g/ha): 0 | Plant response rating, Pigweed ([6]; preemergence, Rate 125 g/ha): 0 | Plant response rating, Rice (rice (Oryza saliva) [7]; [34]): 0 | Plant response rating, Rice (rice (Oryza saliva) [7]; [39]): 0 | Plant response rating, Barnyardgrass [8, 34]: 0 | Plant response rating, Barnyardgrass [8, 39]: 0 | Plant response rating, Lambsquarters [9, 34]: 0 | Plant response rating, Crabgrass [10, 34]: 0 | Plant response rating, Crabgrass [10, 39]: 0 | Plant response rating, Cocklebur [11, 34]: 0 | Plant response rating, Surinam grass [12, 34]: 0 | Plant response rating, Surinam grass [12, 39]: 0 | Plant response rating, Foxtail, Giant [13, 34]: 0 | Plant response rating, Foxtail, Giant [13, 39]: 0 | Plant response rating, Corn (corn (Zea mays) [14]; [34]): 0 | Plant response rating, Corn (corn (Zea mays) [14]; [39]): 0 | Plant response rating, Morningglory [15, 34]: 0 | Plant response rating, Rice (rice (Oryza saliva) [16]): 40 | Plant response rating, Barnyardgrass [17]: 80 | Plant response rating, Ducksalad [18]: 60 | Plant response rating, Flatsedge [19]: 90 | Plant response rating, Velvetleaf [20, 36]: 0 | Plant response rating, Velvetleaf [20, 37]: 0 | Plant response rating, Pigweed [21, 36]: 0 | Plant response rating, Pigweed [21, 37]: 0 | Plant response rating, Wild Oat (wild oat (Avena fatua); [36]): 0 | Plant response rating, Wild Oat (wild oat (Avena fatua); [37]): 0 | Plant response rating, Barnyardgrass [22, 36]: 0 | Plant response rating, Barnyardgrass [22, 37]: 0 | Plant response rating, Lambsquarters [23, 36]: 80 | Plant response rating, Lambsquarters [23, 37]: 80 | Plant response rating, Wheat [24, 36]: 0 | Plant response rating, Wheat [24, 37]: 0 | Plant response rating, Crabgrass [25, 36]: 0 | Plant response rating, Crabgrass [25, 37]: 0 | Plant response rating, Cocklebur [26, 36]: 0 | Plant response rating, Cocklebur [26, 37]: 0 | Plant response rating, Surinam grass [27, 36]: 0 | Plant response rating, Surinam grass [27, 37]: 0 | Plant response rating, Foxtail, Giant [28, 36]: 0 | Plant response rating, Foxtail, Giant [28, 37]: 0 | Plant response rating, Corn (corn (Zea mays) [29]; [36]): 0 | Plant response rating, Corn (corn (Zea mays) [29]; [37]): 0 | Plant response rating, Morningglory [30, 36]: 0 | Plant response rating, Morningglory [30, 37]: 0 | Plant response rating, Blackgrass [31, 36]: 0 | Plant response rating, Blackgrass [31, 37]: 0

From patent publication US7138361B2, “Herbicidal heterocycles” (E. I. du Pont de Nemours and Company, priority 2000, dated 2006)
